Measured values published in patent US8568994B2, “Method for prenatal diagnosis” (DKFZ Deutsches Krebsforschungszentrum, Stiftung des …, priority 2007, dated 2013).

Tested on: Differentiated HPC cells
Experiment: Regulated exosomal secretion in human podocytes (Western blot of secreted vesicles for CD24, HSP70, Annexin-1)
Format: cell-based
Conditions: MCD 10 μg/ml or 10 mM for 2 hr
Protocol: Cultured HPC (differentiated) were treated with ionomycin (1 μM), MCD (10 mM) or cis-platin (15 μM) for 2 hr. Secreted membrane vesicles were harvested and cells were lysed in lysis buffer. Lysates and isolated vesicles were analyzed by SDS-PAGE followed by Western blot analysis with the indicated antibodies to CD24 and the exosomal marker proteins HSP70 and Annexin-1. Note the low level of constitutive vesicle secretion that is augmented by MCD.
Differentiated HPC cells were treated with ionomycin ([…]), MCD (10 μg/ml) or cisplatin (1 μg/ml) and analyzed the amount of exosomes released.
Human conditionally immortalized podocytes (HPC) were isolated and cultivated as previously described (31). Cells were grown in flasks either at the permissive temperature of 32° C. (in 5% CO2) to promote cell propagation as a cobblestone phenotype (undifferentiated) or at the nonpermissive temperature of 37° C. (in 5% CO2) to inactivate the SV40 T antigen and to allow the cells to differentiate. Prior to stimulation, cells were incubated for 16 h in RPMI 1640 medium, supplemented with 0.1 mg/ml of fatty acid-free bovine serum albumin. HK-2 human proximal tubular epithelial cells were obtained from American Type Culture Collection (ATCC, USA). Human mesangial cells (HMC) were kindly provided by Prof. Dr. Radeke (Depart. of Pharmacology, University of Frankfurt). […]

Substance: methyl-beta-cyclodextrin [MCD]
- release of CD24 containing exosomes: significantly augmented the release of CD24 containing exosomes
